Data taken from US9394308B2, “Inhibiting the transient receptor potential A1 ion channel” (Merck Sharp & Dohme Corp., priority 2013, dated 2016).
Entries after “also recorded” stand apart in the source; their conditions may differ.

Columns and labels:
[1] = Rodent acute tolerability test, liver function tests (Example 5); assay type: in vivo, Female Sprague Dawley rats; conditions: rat; for serum biomarkers of hepatotoxicity (in words): in vivo; for LFT blood levels ALT and AST (in words): intravenous bolus, about 24 hours post dose
Description: Compounds of Formula (I) were assessed for acute tolerability in a rodent model at dose levels ranging from 100-200 mg/kg based upon the minimum efficacious dose of each compound. Female Sprague Dawley rats were administered up to a 10 mL/kg dose volume of each compound in 0.9% saline at appropriate concentrations as an intravenous bolus via the lateral tail vein. The animals were observed immediately post dose and for up to twenty four hours post dose and clinical observations were recorded. Additionally, approximately twenty four hours post dose animals were euthanized and blood taken for serum chemistry analysis with a focus on liver function tests (LFTs). The maximum tolerated single dose and LFT results are summarized in Table 3 in FIG. 3, where ( ? ) indicates blood levels of markers for potential liver damage within normal range and (↑) indicates blood levels of markers for potential liver damage elevated above normal range. Referring to the data in Table 3, LFT blood levels of markers for potential liver damage remained within normal range for the compounds of Formula (I), while LFTs were elevated for Comparator Compounds including 5-10 fold elevation above normal for ALT and AST blood levels observed upon administration of Comparator Compound 1.

[2] = Aqueous solubility (Example 2); assay type: physicochemical; conditions: method of Example 2
Description: Compounds of Formula (I) where R^1 is —CH2—R^1a, and R^1a is phosphate, have suitable levels of aqueous solubility for incorporation in a pharmaceutical composition formulated for intravenous administration. Unless otherwise indicated, the aqueous solubility of compounds of Formula (I) in Tables in FIG. 1 was measured using the procedure of Example 2 (Kerns, E. H., Journal of Pharmaceutical Sciences 2001, 90, 1838-1858, incorporated herein by reference). Solubility data was obtained by this method for compounds of Formula (I) and included in FIG. 1. The chromatographic data was performed using (type of HPLC). The column used was an Xbridge Shield RP18 with the following column dimensions: 4.6×30 mm, 3.5 μm. The mobile phase consisted of deionized water (MPA) with trifluoroacetic acid added in at 0.1% (v/v) (MPC) and HPLC-grade acetonitrile (MPB). The mobile phase flow rate was 2.5 mL/min with the column and sampling operating at ambient temperature. UV detection was set to 280 nm. For all samples used for solubility determination, the mobile phase gradient used was as follows in Table 1g below.
Stock solutions of compounds of Formula (I) where R^1 is —CH2—R^1a, and R^1a is phosphate, were prepared in water at 20 mg/mL. Stock solutions of the compounds of Formula (I), wherein R^1 is hydrogen, were prepared in dimethyl acetamide at 20 mg/mL. […]

[3] = test system: CFA Cold Allodynia; experiment: Rodent cold plate pain model, Complete Freund's Adjuvant (Example 4); assay type: in vivo; conditions: rat
Description: CFA-induced pain test method reported in del Camino et al., J. Neurosci., 30 (45):15165-15174, incorporated herein by reference in its entirety. Briefly, the right hind paw is sensitized to cold temperature (allodynic) by administering 0.1 mL of Complete Freund's Adjuvant (CFA) to that paw. Two to four days later, the time it takes for the animal to lift its CFA-injected paw from the cold surface is recorded compared to its un-injected normal left hind paw. […] To avoid tissue damage, the maximum cut-off time is five minutes. Animals that are allodynic (average PWL to the first three pain behaviors<150 seconds for the CFA-injected hind paw: ˜≧50% difference between the normal and CFA-injected paw) are included in the study and subsequently randomized across treatment groups. The following day, the animals in some groups are dosed with a test compound under blinded conditions. Following the one to two hour pre-treatment time, the post-dose PWL readings are taken again. The efficacy of the drug treatment is assessed by comparing the PWL in the drug treatment animals to those that receive the vehicle.

Row | Structure (SMILES) | serum biomarkers of hepatotoxicity (in words) [1] | LFT blood levels ALT and AST (in words) [1] | also measured
1 | C[C@H]1CCCN1c1ccc(-c2csc(NC(=O)Cn3cnc4c3c(=O)n(C)c(=O)n4C)n2)cc1F [Comparator Compound 1, reference compound] | elevate the serum biomarkers of hepatotoxicity |  | 
2 | C[C@H]1CCCN1c1ncc(-c2cccc(NC(=O)Cn3cnc4c3c(=O)n(C)c(=O)n4C)n2)cn1 [Comparator Compound 2, reference compound] | did not elevate the serum biomarkers of hepatotoxicity |  | aqueous solubility (in words) [2]: undesirably low aqueous solubility
3 | C[C@@H](C(=O)N(COP(=O)([O-])O)c1cccc(-c2cnc(N3CCC[C@H]3C(F)(F)F)nc2)n1)n1cnc2c1c(=O)n(C)c(=O)n2C.[Na+] [Compound 1-A, ((S)-2-(1,3-dimethyl-2,6-dioxo-1,2,3,6-tetrahydro-7H-purin-7-yl)-N-(6-(2-((S)-2-(trifluoromethyl)pyrrolidin-1-yl)pyrimidin-5-yl)pyridin-2-yl)propanamido)methyl dihydrogen phosphate] |  | did not result in abnormally high levels of LFT compounds ALT or AST | effect on cold allodynia (in words) ([3]; CFA cold plate model): analgesic effect on cold allodynia; also recorded: reversal of CFA Cold Allodynia; Paw Withdrawal Latency (PWL) (in words) ([3]; i.p. administration, CFA model, cold plate 1° C.): increased rodent Paw Withdrawal Latency
4 | C[C@@H](C(=O)N(COP(=O)(O)O)c1cncc(-c2cnc(N3CCC[C@H]3C(F)(F)F)nc2)n1)n1cnc2c1c(=O)n(C)c(=O)n2C [Compound 2-E, ((S)-2-(1,3-dimethyl-2,6-dioxo-1,2,3,6-tetrahydro-7H-purin-7-yl)-N-(6-(2-((S)-2-(trifluoromethyl)pyrrolidin-1-yl)pyrimidin-5-yl)pyrazin-2-yl)propanamido)methyl dihydrogen phosphate] |  | did not result in abnormally high levels of LFT compounds ALT or AST | 
5 | C[C@@H](C(=O)N(COP(=O)(O)O)c1cncc(-c2cnc(N3CCCC3(C)C)nc2)n1)n1cnc2c1c(=O)n(C)c(=O)n2C [Compound 3-J, (S)-(2-(1,3-dimethyl-2,6-dioxo-1,2,3,6-tetrahydro-7H-purin-7-yl)-N-(6-(2-(2,2-dimethylpyrrolidin-1-yl)pyrimidin-5-yl)pyrazin-2-yl)propanamido)methyl dihydrogen phosphate] |  | did not result in abnormally high levels of LFT compounds ALT or AST | 
6 | C[C@H]1CCCN1c1ncc(-c2cncc(N(COP(=O)(O)O)C(=O)[C@H](C)n3cnc4c3c(=O)n(C)c(=O)n4C)n2)cn1 [((S)-2-(1,3-dimethyl-2,6-dioxo-1,2,3,6-tetrahydro-7H-purin-7-yl)-N-(6-(2-((S)-2-methylpyrrolidin-1-yl)pyrimidin-5-yl)pyrazin-2-yl)propanamido)methyl dihydrogen phosphate] |  | did not result in abnormally high levels of LFT compounds ALT or AST | 
